We go through one substance from US9453244B2, “Method for producing a monoalkene by enzymatic conversion of an alkyl monoester” (Scientist of Fortune S.A., priority 2012, dated 2016).

Assay [1] deals with T1, isoprene synthase from Pueraria montana var. lobata (Pueraria montana var. lobata, UniProt Q6EJ97).
T1 construct: 6xHis (N); made in house; host or cells: E. coli BL21(DE3), pET 25b(+)
T1 sequence (Q6EJ97 46-608): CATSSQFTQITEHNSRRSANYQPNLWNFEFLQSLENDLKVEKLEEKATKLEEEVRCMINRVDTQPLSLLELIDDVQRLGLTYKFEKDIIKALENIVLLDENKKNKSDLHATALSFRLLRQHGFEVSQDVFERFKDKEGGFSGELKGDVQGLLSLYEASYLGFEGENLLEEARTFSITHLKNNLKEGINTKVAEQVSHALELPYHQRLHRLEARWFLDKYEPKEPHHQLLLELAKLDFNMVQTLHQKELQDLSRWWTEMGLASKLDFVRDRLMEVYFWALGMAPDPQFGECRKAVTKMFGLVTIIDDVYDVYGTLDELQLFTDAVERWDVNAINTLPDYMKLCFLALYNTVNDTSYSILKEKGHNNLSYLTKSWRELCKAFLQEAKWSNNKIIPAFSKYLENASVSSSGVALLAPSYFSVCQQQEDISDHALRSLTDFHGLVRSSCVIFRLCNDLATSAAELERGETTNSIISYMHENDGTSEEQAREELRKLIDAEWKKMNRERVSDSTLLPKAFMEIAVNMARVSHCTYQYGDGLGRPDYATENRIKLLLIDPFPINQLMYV
Put plainly: GC-MS confirmation of propylene produced from propan-2-yl diphosphate in the enzymatic reaction. To be noted: FIG. 3. Format: biochemical. The protocol: (§1) 5 mg of the terpene synthase was added to 0.5 ml of reaction mixture. An enzyme-free control reaction was carried out in parallel. Assays were incubated at 37° C. for 60 hours in a 1.5 ml sealed glass vial (Interchim) with shaking. One ml of the headspace phase was then collected and injected into a gas chromatograph Varian 430-GC equipped with a flame ionization detector (FID). Nitrogen was used as carrier gas with a flow rate of 1.5 mL/min. Volatile compounds were chromatographically separated on RT-Alumina Bond/Na2SO4 column (Restek) using an isothermal mode at 130° C. The enzymatic reaction product was identified by comparison with propylene standard (Sigma). Under these GC conditions, the retention time for propylene was 2.8 min. […] Gas chromatography-mass spectrometry (GC-MS) was then used to confirm the identity of the product detected by gas chromatography with flame ionization. The samples were analyzed on a Varian 3400 CX gas chromatograph equipped with Varian Saturn 3 mass selective detector. The mass spectrum of propylene obtained by enzymatic conversion of propan-2-yl diphosphate was similar to the one of commercial propylene (FIG. 3).

The test system of assay [2] is purified terpene synthases. Put plainly: Propylene production from propan-2-yl diphosphate with purified terpene synthases (headspace GC/FID). It is filed as biochemical. To be noted: 50 mM substrate, 5 mg terpene synthase in 0.5 ml, 37° C., 60 hours. The protocol: as §1, with “The enzymatic assays were carried out under the following conditions: 50 mM Tris-HCl pH 7.5 100 mM MgCl2 50 mM KCl 5 mM DTT 50 mM propan-2-yl diphosphate 5 mg” for “5 mg”

Regarding propan-2-yl diphosphate, the “propylene produced from the substrate, identity confirmed by mass spectrum” value in assay [1] was “propylene produced”. Also, the “propylene production from the substrate (enzymatic conversion)” value in assay [2] (pH 7.5) is reported as “significant production of propylene”; in assay [2] (pH 7.5, listed as propan-2-yl), “able to convert propan-2-yl into propylene”.
